Results: publication PMC3871271 (FEBS Open Bio, 2013)
Entries after “also recorded” stand apart in the source; their conditions may differ.

Experiments:
Design in all cases: species or system Scherffelia dubia
[1] = test system: C-SdCen WT (C-terminal domain M93-F168 of SdCen); assay: ITC binding of target peptides to wild-type C-SdCen; details: for TΔS / ΔG / Ka / ΔH: pH 7.5; for TΔS: from ΔG = ΔH − TΔS; for ΔG: ΔG = −RTln(1/Ka); for effect of calcium on binding (in words): presence vs absence of calcium; for Ka / ΔH: MOPS 50 mM, NaCl 100 mM, SD of fit in parenthesis
C-SdCen F109L-E144A = assay: ITC binding of target peptides to C-SdCen F109L-E144A; details: for effect of F109L-E144A mutation on binding (in words): F109L-E144A vs WT and single mutants; for TΔS / ΔG: F109L-E144A, pH 7.5; for TΔS: from ΔG = ΔH − TΔS; for ΔG: ΔG = −RTln(1/Ka); for ΔΔH: difference in binding enthalpy SdCen wt vs F109L-E144A; for ΔΔH / ΔΔG: EDTA 2 mM; for ΔΔG: difference in free energy SdCen wt vs F109L-E144A
C-SdCen E144A = assay: ITC binding of target peptides to C-SdCen E144A; details: for TΔS / ΔG: pH 7.5; for TΔS: from ΔG = ΔH − TΔS; for ΔG: ΔG = −RTln(1/Ka); for ΔΔH: difference in binding enthalpy SdCen wt vs E144A; for ΔΔH / ΔΔG: EDTA 2 mM; for ΔΔG: difference in free energy SdCen wt vs E144A; for factor of decrease in affinity by E144A: absence of calcium
C-SdCen F109L = assay: ITC binding of target peptides to C-SdCen F109L; details: for effect of F109L mutation on binding (in words) / factor of increase in change in enthalpy (ΔH) / factor of reduction of binding constant by F109L / factor of decrease in Ka by F109L: F109L vs WT; for factor of increase in change in enthalpy (ΔH) / factor of reduction of binding constant by F109L: EDTA; for factor of decrease in Ka by F109L: temperature not stated; for TΔS / ΔG: F109L, pH 7.5; for TΔS: from ΔG = ΔH − TΔS; for ΔG: ΔG = −RTln(1/Ka); for ΔΔH: difference in binding enthalpy SdCen wt vs F109L; for ΔΔH / ΔΔG: EDTA 2 mM; for ΔΔG: difference in free energy SdCen wt vs F109L
[2] = WT, EDTA, 30 °C to 37 °C, becoming more negative
[3] = E144A, 30 °C, no Ca2+ (EDTA 2 mM)
[4] = E144A, 37 °C, no Ca2+ (EDTA 2 mM)

677-SQHNRQLLRGALRRWK-692 [R18-Sfi1]
effect of temperature increase (in words) ([1]; WT, 30 °C to 37 °C, XPC vs Sfi1): a more pronounced effect on Sfi1
TΔS ([1]; WT, 30 °C, no Ca2+ (EDTA 2 mM)): -22.24 kcal/mol
ΔG ([1]; WT, 30 °C, no Ca2+ (EDTA 2 mM)): -9.26 kcal/mol
TΔS ([1]; WT, 37 °C, no Ca2+ (EDTA 2 mM)): -27.78 kcal/mol
factor of decrease in binding on temperature increase ([1]; WT, EDTA, 30 °C to 37 °C): 4
factor of decrease in TΔS on temperature increase [1, 2]: 1.3
factor of decrease in ΔH on temperature increase [1, 2]: 1.2
effect of calcium on binding (in words) ([1]; WT): the presence of calcium enhanced the binding
effect of calcium on binding (in words) ([1]; WT, listed as Sfi1): Calcium was not required for binding although its presence enhanced the binding
effect of F109L-E144A mutation on binding (in words) (C-SdCen F109L-E144A): exhibited the same behavior as wild-type SdCen at both temperatures
TΔS (C-SdCen F109L-E144A; 30 °C, no Ca2+ (EDTA 2 mM)): -16.33 kcal/mol
ΔG (C-SdCen F109L-E144A; 30 °C, no Ca2+ (EDTA 2 mM)): -8.07 kcal/mol
TΔS (C-SdCen F109L-E144A; 37 °C, no Ca2+ (EDTA 2 mM)): -18.24 kcal/mol
ΔΔH (C-SdCen F109L-E144A; 30 °C): -7.1 kcal/mol
ΔΔH (C-SdCen F109L-E144A; 37 °C): -10.66 kcal/mol
ΔΔG (C-SdCen F109L-E144A; 30 °C): -1.19 kcal/mol
ΔΔG (C-SdCen F109L-E144A; 37 °C): -1.12 kcal/mol
effect of E144A mutation on binding (in words) (C-SdCen E144A; E144A vs WT): no effect on the binding of C-SdCen to R18-Sfi1
effect of E144A mutation on binding (in words) (C-SdCen E144A; E144A vs WT, listed as Sfi1): had no effect on Sfi1 binding
TΔS (C-SdCen E144A; [3]): -21.06 kcal/mol
ΔG (C-SdCen E144A; [3]): -9.25 kcal/mol
TΔS (C-SdCen E144A; [4]): -26.88 kcal/mol
ΔΔH (C-SdCen E144A; 30 °C): -1.19 kcal/mol
ΔΔH (C-SdCen E144A; 37 °C): -0.87 kcal/mol
ΔΔG (C-SdCen E144A; 30 °C): -0.01 kcal/mol
effect of F109L mutation on binding (in words) (C-SdCen F109L): reduced the binding; also recorded: decreased the binding
factor of increase in change in enthalpy (ΔH) (C-SdCen F109L; 30 °C): 1.4
factor of reduction of binding constant by F109L (C-SdCen F109L; 30 °C): 6
factor of increase in change in enthalpy (ΔH) (C-SdCen F109L; 37 °C): 1.4
factor of reduction of binding constant by F109L (C-SdCen F109L; 37 °C): 6
factor of decrease in Ka by F109L (C-SdCen F109L): 6
TΔS (C-SdCen F109L; 30 °C, no Ca2+ (EDTA 2 mM)): -14.96 kcal/mol
ΔG (C-SdCen F109L; 30 °C, no Ca2+ (EDTA 2 mM)): -8.24 kcal/mol
TΔS (C-SdCen F109L; 37 °C, no Ca2+ (EDTA 2 mM)): -22.3 kcal/mol
ΔG (C-SdCen F109L; 37 °C, no Ca2+ (EDTA 2 mM)): -8.1 kcal/mol
ΔΔH (C-SdCen F109L; 30 °C): -8.3 kcal/mol
ΔΔH (C-SdCen F109L; 37 °C): -6.69 kcal/mol
ΔΔG (C-SdCen F109L; 30 °C): -1.02 kcal/mol
ΔΔG (C-SdCen F109L; 37 °C): -1.21 kcal/mol

846-NWKLLAKGLLIRERLKR-863 [P17-XPC]
Ka ([1]; WT, 30 °C, Ca2+ 2 mM): 59.4(9.10) 10^6 M^−1
ΔH ([1]; WT, 30 °C, Ca2+ 2 mM): −23.4(0.16) kcal/mol
TΔS ([1]; WT, 30 °C, Ca2+ 2 mM): -12.63 kcal/mol
ΔG ([1]; WT, 30 °C, Ca2+ 2 mM): -10.77 kcal/mol
factor of higher affinity for P17-XPC than for R18-Sfi1 ([1]; WT, 30 °C, EDTA): 7
ΔG ([1]; WT, 30 °C, no Ca2+ (EDTA 2 mM)): -10.41 kcal/mol
Ka ([1]; WT, 37 °C, Ca2+ 2 mM): 73.2(7.0) 10^6 M^−1
ΔH ([1]; WT, 37 °C, Ca2+ 2 mM): −23.36(0.08) kcal/mol
TΔS ([1]; WT, 37 °C, Ca2+ 2 mM): -12.18 kcal/mol
ΔG ([1]; WT, 37 °C, Ca2+ 2 mM): -11.18 kcal/mol
factor of higher affinity for P17-XPC than for R18-Sfi1 ([1]; WT, 37 °C, EDTA): 10
TΔS ([1]; WT, 37 °C, no Ca2+ (EDTA 2 mM)): -29.94 kcal/mol
difference in ΔH between P17-XPC and R18-Sfi1 ([1]; WT, EDTA, 30 °C and 37 °C): 3 kcal/mol
factor of decrease in binding on temperature increase ([1]; WT, EDTA, 30 °C to 37 °C): 3
factor of decrease in ΔH on temperature increase [1, 2]: 1.2
effect of calcium on binding (in words) ([1]; WT): the presence of calcium enhanced the binding
effect of calcium on binding (in words) ([1]; WT, listed as XPC): Calcium was not required for binding although its presence enhanced the binding; also recorded: addition of calcium enhanced the affinity
affinity comparison XPC vs Sfi1 (in words) ([1]; centrin, ITC, present and previous work): better for XPC than for other targets such as Sfi1
effect of F109L-E144A mutation on binding (in words) (C-SdCen F109L-E144A; listed as XPC): enhanced the negative effect of the two single mutations on XPC binding; also recorded: further reduced XPC binding
TΔS (C-SdCen F109L-E144A; 30 °C, Ca2+ 2 mM): -3.69 kcal/mol
ΔG (C-SdCen F109L-E144A; 30 °C, Ca2+ 2 mM): -10.42 kcal/mol
ΔG (C-SdCen F109L-E144A; 30 °C, no Ca2+ (EDTA 2 mM)): -7.81 kcal/mol
TΔS (C-SdCen F109L-E144A; 37 °C, Ca2+ 2 mM): -6.60 kcal/mol
ΔG (C-SdCen F109L-E144A; 37 °C, Ca2+ 2 mM): -10.59 kcal/mol
TΔS (C-SdCen F109L-E144A; 37 °C, no Ca2+ (EDTA 2 mM)): -13.21 kcal/mol
ΔΔH (C-SdCen F109L-E144A; 30 °C): -11.6 kcal/mol
ΔΔH (C-SdCen F109L-E144A; 37 °C): -19.4 kcal/mol
ΔΔG (C-SdCen F109L-E144A; 30 °C): -2.6 kcal/mol
ΔΔG (C-SdCen F109L-E144A; 37 °C): -2.67 kcal/mol
factor of decrease in affinity by E144A (C-SdCen E144A; E144A vs WT, 30 °C): 3
factor of decrease in affinity by E144A (C-SdCen E144A; E144A vs WT, 37 °C): 4
ΔH compared to wild type (in words) (C-SdCen E144A; E144A vs WT, EDTA): the same as for the wild type
effect of E144A mutation on binding (in words) (C-SdCen E144A; E144A vs WT, listed as XPC): reduced the binding to XPC
TΔS (C-SdCen E144A; E144A, 30 °C, Ca2+ 2 mM): -9.36 kcal/mol
ΔG (C-SdCen E144A; E144A, 30 °C, Ca2+ 2 mM): -11.08 kcal/mol
TΔS (C-SdCen E144A; [3]): -19.78 kcal/mol
ΔG (C-SdCen E144A; [3]): -9.72 kcal/mol
TΔS (C-SdCen E144A; E144A, 37 °C, Ca2+ 2 mM): -13.76 kcal/mol
ΔG (C-SdCen E144A; E144A, 37 °C, Ca2+ 2 mM): -11.41 kcal/mol
TΔS (C-SdCen E144A; [4]): -28.66 kcal/mol
effect of calcium on affinity (in words) (C-SdCen E144A; E144A, presence vs absence of calcium): addition of calcium enhanced the affinity
ΔΔH (C-SdCen E144A; 30 °C): -4.3 kcal/mol
ΔΔH (C-SdCen E144A; 37 °C): -2.2 kcal/mol
ΔΔG (C-SdCen E144A; 30 °C): -0.69 kcal/mol
factor of increase in change in enthalpy (ΔH) (C-SdCen F109L; 30 °C): 1.7
factor of reduction of binding constant by F109L (C-SdCen F109L; 30 °C): 15
factor of increase in change in enthalpy (ΔH) (C-SdCen F109L; 37 °C): 1.4
factor of reduction of binding constant by F109L (C-SdCen F109L; 37 °C): 15
factor of decrease in Ka by F109L (C-SdCen F109L): 15
effect of F109L mutation on binding (in words) (C-SdCen F109L; listed as XPC): reduced the binding; also recorded: decreased the binding
TΔS (C-SdCen F109L; 30 °C, Ca2+ 2 mM): -4.78 kcal/mol
ΔG (C-SdCen F109L; 30 °C, Ca2+ 2 mM): -10.85 kcal/mol
TΔS (C-SdCen F109L; 30 °C, no Ca2+ (EDTA 2 mM)): -11.88 kcal/mol
ΔG (C-SdCen F109L; 30 °C, no Ca2+ (EDTA 2 mM)): -8.72 kcal/mol
TΔS (C-SdCen F109L; 37 °C, Ca2+ 2 mM): -6.20 kcal/mol
ΔG (C-SdCen F109L; 37 °C, Ca2+ 2 mM): -10.77 kcal/mol
ΔΔH (C-SdCen F109L; 30 °C): -13.2 kcal/mol
ΔΔH (C-SdCen F109L; 37 °C): -17.44 kcal/mol
ΔΔG (C-SdCen F109L; 30 °C): -1.69 kcal/mol
ΔΔG (C-SdCen F109L; 37 °C): -2.03 kcal/mol
